Biological target: T1, CCK-A (Cavia porcellus, UniProt Q63931)
T1 construct: Isolated, strip preparations were prepared from gall-bladders removed from male Dunkin-Hartley guinea-pigs; from tissue; host or cells: isolated gall-bladder strips of male Dunkin-Hartley guinea-pigs
T1 sequence (Q63931 1-430): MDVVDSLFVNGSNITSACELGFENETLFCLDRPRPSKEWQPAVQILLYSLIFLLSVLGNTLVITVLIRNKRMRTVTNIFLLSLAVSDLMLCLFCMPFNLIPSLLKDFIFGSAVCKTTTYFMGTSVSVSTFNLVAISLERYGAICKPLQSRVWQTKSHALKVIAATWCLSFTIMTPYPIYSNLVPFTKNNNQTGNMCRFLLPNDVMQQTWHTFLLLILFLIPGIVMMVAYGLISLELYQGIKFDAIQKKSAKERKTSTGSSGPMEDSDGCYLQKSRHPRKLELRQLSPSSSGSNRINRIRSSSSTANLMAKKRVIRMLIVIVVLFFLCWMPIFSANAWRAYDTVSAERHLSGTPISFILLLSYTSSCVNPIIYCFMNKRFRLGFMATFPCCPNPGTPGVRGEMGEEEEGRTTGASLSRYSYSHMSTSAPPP
Experiment: CCK-receptor bioassay, isolated guinea-pig gall-bladder strips, CCK-8 as agonist
Assay type: cell-based, male Dunkin-Hartley guinea-pigs
Settings: negative logarithm (base 10) of equilibrium dissociation constant (pKB), CCK-8 agonist, test compound incubated 60 minutes
Description: The compounds were assayed using the CCK-receptor bioassay as follows:
Isolated, strip preparations were prepared from gall-bladders removed from male Dunkin-Hartley guinea-pigs (250-500 g body weight) according to the method of La Morte, W. W., et al., J.P.E.T., 217, (3), 638-644 (1981).
The complete gall-bladder is removed and opened along the longitudinal axis. Strips measuring 3 mm in the longitudinal axis and 1 mm in the transverse axis are cut and then tied with cotton to stainless steel wires. The preparation is connected to a GRASS FTO3 isometric transducer under an initial loading tension of 1 g and is immersed in 20 mls of Krebs solution maintained at 37° C. and gassed with 95% O2 /5% CO2. The composition (mM) of the Krebs solution is as follows: Na^+ 143, K^+ 5.9, Ca^2+ 0.5, Mg^2+ 1.2, Cl^- 128, H2 PO4^- 2.2, HCO3^- 24.9, SO4^2- 1.2, dextrose 10. After 30 mins the preparation is washed. Drug addition begins after an initial 90 min stabilisation period. Responses are measured as changes in tension from that immediately prior to any drug addition. Single cumulative agonist concentration-effect curves, using CCK-8 as agonist, are obtained on each preparation in the absence and presence of test compound which has been incubated for 60 minutes. The antagonist activity of the test compound is estimated and expressed as the negative logarithm (base 10) of the equilibrium dissociation constants (pKB) using the modifications of standard competitive analysis described by Black et al., Br. J. Pharmacol.,86,571-579, (1985) and Shankley et al., Br. J. Pharmacol.,94,264-274 (1988).

SMILES | pKB
COc1ccc2cc(S(=O)(=O)N[C@@H](CC(=O)O)C(=O)NCCc3ccccc3)ccc2c1Cl [Example 13, 5-Chloro-6-methoxynaphthalenesulphonyl-L-aspartyl (2-phenethyl)amide] | 6.49 ± 0.38
O=C(O)C[C@H](NS(=O)(=O)/C=C/c1ccccc1)C(=O)NCCc1ccccc1 [Example 22, 2-phenethenylsulphonyl-L-aspartyl (2-phenethyl)amide] | 6.27 ± 0.22
O=C(O)C[C@H](NS(=O)(=O)Cc1ccc2ccccc2c1)C(=O)NCCc1ccccc1 [Example 10, Naphthylmethanesulphonyl-L-aspartyl (2-phenethyl)amide] | 5.40 ± 0.18

Same assay, conditions: negative logarithm (base 10) of equilibrium dissociation constant (pKB), CCK-8 agonist, test compound incubated 60 minutes, read-out: pK8 versus CCK (gallbladder) (converted)

SMILES | Kb
O=C(O)C[C@H](NS(=O)(=O)c1ccc(Cl)c(Cl)c1)C(=O)NCCc1ccccc1 [Example 9, 3,4-Dichlorobenzenesulphonyl-L-aspartyl (2-phenethyl)amide] | 1700 nM
O=C(O)C[C@H](NS(=O)(=O)c1ccc2ccccc2c1)C(=O)N1CCc2ccccc2C1 [Example 21, 2-Naphthalenesulphonyl-L-aspartyl (1,2,3,4-tetrahydroisoquinolin)amide] | 7240 nM
O=C(O)C[C@H](NS(=O)(=O)CCc1ccccc1)C(=O)NCCc1ccccc1 [Example 7, 2-phenylethanesulphonyl-L-aspartyl (2-phenethyl)amide] | 3470 nM
COc1ccc2cc(S(=O)(=O)N[C@@H](CC(=O)O)C(=O)NCCc3ccccc3)ccc2c1 [Example 12, 6-Methoxynaphthalenesulphonyl-L-aspartyl (2-phenethyl)amide] | 257 nM
O=C(O)C[C@H](NS(=O)(=O)c1ccc2ccccc2c1)C(=O)NCCc1ccccc1 [Example 1, 2-Naphthalenesulphonyl-L-aspartyl (2-phenethyl)amide] | 324 nM
O=C(O)C[C@H](NS(=O)(=O)c1ccc2ccccc2c1)C(=O)NCCCc1ccccc1 [Example 23, 2 -Naphthalenesulphonyl-L-aspartyl (3-phenylpropyl)amide] | 105 nM
O=C(O)C[C@H](NS(=O)(=O)c1ccc2ccccc2c1)C(=O)NCCc1ccc(F)cc1 [Example 18, 2-Naphthalenesulphonyl-L-aspartyl (2(4-fluorophenethyl)amide)] | 269 nM
COc1cc2cc(S(=O)(=O)N[C@@H](CC(=O)O)C(=O)NCCc3ccccc3)ccc2c(Cl)c1OC [Example 14, 5-Chloro-6,7-dimethoxynaphthalenesulphonyl-L-aspartyl (2-phenethyl)amide] | 617 nM
O=C(O)C[C@@H](NS(=O)(=O)c1ccc2ccccc2c1)C(=O)NCCc1ccccc1 [Example 15, 2-Naphthalenesulphonyl-D-aspartyl (2-phenethyl)amide] | 1200 nM
NS(=O)(=O)c1ccc(CCNC(=O)[C@H](CC(=O)O)NS(=O)(=O)c2ccc3ccccc3c2)cc1 [Example 20, 2-Naphthalenesulphonyl-L-aspartyl (2-(4-sulphonamidophenethyl)amide)] | 11200 nM
O=C(O)CC[C@H](NS(=O)(=O)c1ccc2ccccc2c1)C(=O)NCCc1ccccc1 [Example 16, 2-Naphthalenesulphonyl-L-glutamyl (2-phenethyl)amide] | 724 nM
COc1ccc(CCNC(=O)[C@H](CC(=O)O)NS(=O)(=O)c2ccc3ccccc3c2)cc1 [Example 19, Naphthalenesulphonyl-L-aspartyl (2-(4-methoxyphenethyl)amide)] | 1020 nM

Reference: patent US5399748A, “Derivatives of aspartic acid and glutamic acid having anticholecystokinin activity” (James Black Foundation Limited, priority 1990, dated 1995)
